The term efflux ratio denotes the permeability from basolateral to apical divided by that in the opposite direction, in the common usage. As a reminder, the Papp A→B is how fast a substance crosses the layer from the apical side. In general, Papp B→A refers to the apparent permeability from the basolateral to the apical side of a cell layer. Usually IC50 stands for the concentration needed to halve the response being measured.

Data on 3 compounds can be found in patent publication US11161845B2, “Pyrrolopyridine-aniline compounds for treatment of dermal disorders” (Nflection Therapeutics, Inc., priority 2017, dated 2021).

In one data set the test system is P-gp (human MDR1). In words: in vitro. The note with it: dog; for Papp A→B at 1 h, 5 μM / Papp B→A at 1 h, 5 μM: MDCK-MDR1, Papp. As for the experimental part: (§1) MDCK-MDR1 is a stable-transfected cell line originating from MDCK cells, with over-expression of human MDR1 gene. The cell line is widely used for the identification and characterization of P-gp substrates and inhibitors.
(§2) MDCK-MDR1 cells were plated into 96-well Millipore Millicell-96 plates at 7,500 cells/75 μL/well and incubated for three days at 37° C. with 5% CO2. Cells were washed with Hank's Balanced Salt Solution (HBSS) with 5 mM HEPES for 30 minutes before starting the experiment. Test compound solutions were prepared by diluting DMSO stock into HBSS buffer, resulting in a final DMSO concentration of 0.1%. Prior to the experiment, cell monolayer integrity was verified by […] electrical resistance (TEER). Transport experiment was initiated by adding test compounds to the apical (75 μL) or basal (250 μL) side. Transport plates were incubated at 37° C. in a humidified incubator with 5% CO2. Samples were taken from the donor and acceptor compartments after one hour and analyzed by liquid chromatography with tandem mass spectrometry (LC/MS/MS).
(§3) Digoxin was used as reference control.
(§4) Apparent permeability (Papp) values were calculated using the following equation: Papp=(dQ/dt)/A/Co; where dQ/dt is the initial rate of amount of test compound transported across cell monolayer, A is the surface area of the filter membrane, and Co is the initial concentration of the test compound, calculated for each direction using a 4-point calibration curve by LC/MS/MS.
(§5) Net flux ratio between the two directional transports was calculated by the following equation: Ratio=Papp, B-A/Papp, A-B; where Papp, B-A and Papp, A-B represent the apparent permeability of test compound from the basal-to-apical and apical-to-basal side of the cellular monolayer, respectively.
(§6) Recovery was calculated based on the compound concentration at the end of the experiment, compared to that at the beginning of the experiment, adjusted for volumes.
(§7) A net flux ratio greater than two was considered a positive result for substrate determination. […] If the addition of a known P-gp inhibitor to the experiment reduces the net flux ratio by a significant amount (more than 50% reduction or reduces the ratio to close to unity), it is likely that the compound tested is a P-gp substrate.

The next data set concerns MDCK-MDR1 cells. In words: in vitro. The note with it: dog, MDCK-MDR1, 1 h, 5 μM. As for the experimental part:
as §1, §2, §3, §4, §5, §6, §7

Data set [1] in a line: S9 stability assay, human liver S9 fraction. The class given is in vitro ADME. To be noted: for CLint: known MEK compounds; for microsomal CLint at 1 μM / half-life at 1 μM: pH 7.4, Table 1, human liver S9 fraction; for microsomal CLint at 1 μM: read-out: CLint; for half-life at 1 μM: read-out: Liver S9 t1/2. As to the method: Compounds were assessed for metabolic stability in human skin by assessing their rate of disappearance from human S9 skin fraction. Similarly, compounds were assessed for metabolic stability in human liver by assessing their rate of disappearance from human S9 liver fraction. The protocol below can be used to assess the difference between skin and hepatic metabolism.
The assay was carried out in 96-well microtiter plates at 37° C. Reaction mixtures (25 μL) contained a final concentration of 1 μM test compound, 2 mg/mL liver or skin S9 protein, and 1 mM NADPH in buffer (100 mM potassium phosphate, pH 7.4 buffer with 1 mM EDTA, 3 mM MgCl2). At each of the time points (0, 15, 30, and 60 minutes), 150 μL of quench solution (100% acetonitrile with 0.1% formic acid) with internal standard was transferred to each well. Besides the zero minute controls, mixtures containing the same components except the NADPH were also prepared as the negative control. Verapamil or testosterone was included as a positive control to verify assay performance. Plates were sealed and centrifuged at 4° C. for 15 minutes at 4000 rpm. The supernatant was transferred to fresh plates for LC/MS/MS analysis.
All samples were analyzed on LC/MS/MS using an AB Sciex API 4000 instrument, coupled to a Shimadzu LC-20AD LC Pump system. Analytical samples were separated using a Waters Atlantis T3 dC18 reverse phase HPLC column (20 mm×2.1 mm) at a flow rate of 0.5 mL/min. The mobile phase consisted of 0.1% formic acid in water (solvent A) and 0.1% formic acid in 100% acetonitrile (solvent B).
The extent of metabolism was calculated as the disappearance of the test compound, compared to the 0-min control reaction incubations. Initial rates were calculated for the compound concentration and used to determine t1/2 values and subsequently, the intrinsic clearance, CLint=(0.693) (1/t1/2 (min)) (mL incubation/mg of S9 protein).

For a further data set, the target named is T1, hERG channel protein (Homo sapiens, UniProt Q12809).
T1 construct: purchased ThermoFisher PV5365
T1 sequence (Q12809 whole entry): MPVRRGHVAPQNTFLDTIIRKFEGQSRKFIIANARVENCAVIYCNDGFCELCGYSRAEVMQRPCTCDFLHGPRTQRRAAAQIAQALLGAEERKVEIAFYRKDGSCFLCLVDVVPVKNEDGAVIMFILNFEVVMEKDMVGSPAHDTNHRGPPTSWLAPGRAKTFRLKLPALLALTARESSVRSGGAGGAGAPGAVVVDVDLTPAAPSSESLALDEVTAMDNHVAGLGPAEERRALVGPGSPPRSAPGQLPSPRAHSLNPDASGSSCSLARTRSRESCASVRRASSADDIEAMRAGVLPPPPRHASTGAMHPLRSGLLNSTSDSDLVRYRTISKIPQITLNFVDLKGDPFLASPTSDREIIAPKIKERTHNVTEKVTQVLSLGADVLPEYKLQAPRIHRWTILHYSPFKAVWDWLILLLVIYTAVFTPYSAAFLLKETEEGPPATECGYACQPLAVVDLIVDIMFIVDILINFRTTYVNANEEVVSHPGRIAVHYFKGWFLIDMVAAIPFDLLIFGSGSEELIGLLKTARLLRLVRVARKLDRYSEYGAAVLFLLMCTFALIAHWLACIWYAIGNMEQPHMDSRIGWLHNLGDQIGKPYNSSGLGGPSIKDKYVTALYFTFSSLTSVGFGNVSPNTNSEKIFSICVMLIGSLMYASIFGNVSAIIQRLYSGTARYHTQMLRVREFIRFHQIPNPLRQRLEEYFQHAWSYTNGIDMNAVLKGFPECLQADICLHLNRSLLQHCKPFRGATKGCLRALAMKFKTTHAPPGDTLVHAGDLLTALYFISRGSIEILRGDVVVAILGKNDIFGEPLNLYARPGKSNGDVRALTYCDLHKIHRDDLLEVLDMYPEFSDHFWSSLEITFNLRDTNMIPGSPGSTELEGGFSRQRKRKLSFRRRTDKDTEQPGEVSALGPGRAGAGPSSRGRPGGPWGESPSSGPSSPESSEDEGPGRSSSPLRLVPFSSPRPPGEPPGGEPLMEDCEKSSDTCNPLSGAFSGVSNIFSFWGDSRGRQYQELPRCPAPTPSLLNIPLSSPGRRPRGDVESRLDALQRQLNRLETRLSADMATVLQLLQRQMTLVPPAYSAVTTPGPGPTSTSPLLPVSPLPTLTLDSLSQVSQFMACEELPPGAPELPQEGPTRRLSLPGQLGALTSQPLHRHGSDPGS
In words: hERG screening assay (Predictor hERG FP). The class given is binding. To be noted: fluorescence polarization tracer displacement. As to the method: hERG screening was conducted using a procedure similar to the procedure described by Piper et al. (Piper, D. R. et al., Assay Drug Dev. Technol. 2008, 6(2):213-223). The Predictor hERG FP assay (available from ThermoFisher, cat. no. PV5365) is a homogenous, fluorescence polarization biochemical-based format utilizing a membrane fraction containing hERG channel protein (Predictor hERG Membrane) and a high affinity, red-fluorescent hERG channel ligand (Predictor hERG Tracer Red). When the Predictor hERG Tracer ligand is bound to the hERG channel it produces high fluorescence polarization values. Compounds that bind to the hERG channel protein (competitors) displace the Predictor hERG Tracer Red resulting in decreased fluorescence polarization values.
Test compounds were solubilized in DMSO at 100× (or greater) of the desired starting concentration. Screening was conducted with a final concentration of 1% DMSO. For 10-point titrations, 3-fold serial dilutions were performed from the starting concentrations. The assay buffer used was 25 mM HEPES (pH 7.5), 15 mM KCl, 1 mM MgCl2, and 0.05% Pluronic F-127 (available from Sigma-Aldrich).
Predictor hERG membranes were stored as a 2× stock at −80° C. Each membrane lot was titrated to identify the concentration of membranes required to obtain ˜70% bound tracer. Before setting up the assay the membranes were thawed in a 37° C. water bath and stored at room temperature. To avoid light scatter caused by large membrane particulates the membranes were sonicated until a homogeneous solution free of particulates is obtained. […]
384 well untreated low-volume polystyrene microplates (Corning Cat. #4511) were used for the assay. […] The assay plate was read on a fluorescence plate reader (Tecan Safire^2) and the data was analyzed. […]
Assay blank control wells consisted of Predictor hERG Membranes and Assay Buffer. The blank wells were used for background subtraction of raw parallel and perpendicular fluorescence values prior to the calculation of polarization values. […]

For data set [2] the following is noted: clinically tested; cited from earlier work.

As to `Cn1c(C(=O)NOCCO)c(Nc2ccc(I)cc2F)c2cnccc21` [Example C8], the efflux ratio at 1 h, 5 μM with P-gp (human MDR1) (MDCK-MDR1) came out at 3.4. The compound also had a Papp A→B at 1 h, 5 μM in the data set on P-gp (human MDR1) (A-B Mean) of 12.8 ×10⁻⁶ cm/s. Moreover, the apparent permeability from apical to basolateral (Papp A→B) at 1 h, 5 μM with P-gp (human MDR1) (A-B Value) was 12.7 ×10⁻⁶ cm/s. In addition, the basolateral-to-apical permeability (Papp B→A) at 1 h, 5 μM with P-gp (human MDR1) (B-A Mean) stood at 43.5 ×10⁻⁶ cm/s. This compound also returned a Papp B→A at 1 h, 5 μM with P-gp (human MDR1) (B-A Value) of 43.2 ×10⁻⁶ cm/s. Further, in the data set on MDCK-MDR1 cells, the “Papp, A-B Value” came to 12.9 ×10⁻⁶ cm/s; the “Papp, B-A Value” was 43.7 ×10⁻⁶ cm/s; the “Recover Rate” value stood at 99%. In addition, in data set [1], the CLint came out at 5.27 μL/min/mg protein, the microsomal CLint at 1 μM came out at 5.27 µL/min/mg and the half-life at 1 μM is 1.1 h. Moreover, the concentration for half-maximal inhibition (IC50) on hERG channel protein was 1.8 µM.

For `O=C(NOC[C@H](O)CO)c1c(Nc2ccc(I)cc2F)sc2ncccc12` [Example C9], in data set [1], the CLint is 2.20 μL/min/mg protein, the microsomal CLint at 1 μM turned out to be 2.2 µL/min/mg and the half-life at 1 μM worked out at 2.63 h. Besides, at hERG channel protein, the IC50 was 7.3 µM.

On to `O=C(NOC[C@H](O)CO)c1ccc(F)c(F)c1Nc1ccc(I)cc1F` [PD0325901], for which the side effects entry in data set [2] was “neurological side effects associated with ataxia, confusion, and syncope”.
